Laboratory results published in PubChem BioAssay (NCI).
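1) Cells in 96-well plates. 2) Compound, 48 h, 5 concentrations. 3) Linear interpolation between surrounding doses. 4) Unreached endpoint = highest concentration. At the TGI there is no net growth.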

Legend:
Assay in all cases: inhibition of tumour cell growth, NCI panel, 48 h
HS 578T breast = test system: HS 578T breast
HT29 colon = test system: HT29 colon
BT-549 breast = test system: BT-549 breast
MCF7 breast = test system: MCF7 breast
NCI/ADR-RES ovarian = test system: NCI/ADR-RES ovarian
HOP-62 NSCLC = test system: HOP-62 NSCLC
SW-620 colon = test system: SW-620 colon
SK-OV-3 ovarian = test system: SK-OV-3 ovarian
SK-MEL-28 melanoma = test system: SK-MEL-28 melanoma
LOX IMVI melanoma = test system: LOX IMVI melanoma
SR leukemia = test system: SR leukemia
CAKI-1 renal = test system: CAKI-1 renal
A498 renal = test system: A498 renal
MOLT-4 leukemia = test system: MOLT-4 leukemia
HOP-92 NSCLC = test system: HOP-92 NSCLC
SNB-19 CNS = test system: SNB-19 CNS
786-0 renal = test system: 786-0 renal
T-47D breast = test system: T-47D breast
SF-268 CNS = test system: SF-268 CNS
UACC-257 melanoma = test system: UACC-257 melanoma
COLO 205 colon = test system: COLO 205 colon
KM12 colon = test system: KM12 colon
SK-MEL-2 melanoma = test system: SK-MEL-2 melanoma
TK-10 renal = test system: TK-10 renal
NCI-H226 lung = test system: NCI-H226 lung
RXF 393 renal = test system: RXF 393 renal
OVCAR-8 ovarian = test system: OVCAR-8 ovarian
HCT-116 colon = test system: HCT-116 colon
UO-31 renal = test system: UO-31 renal
OVCAR-4 ovarian = test system: OVCAR-4 ovarian
SF-295 CNS = test system: SF-295 CNS
SK-MEL-5 melanoma = test system: SK-MEL-5 melanoma
IGROV1 ovarian = test system: IGROV1 ovarian
UACC-62 melanoma = test system: UACC-62 melanoma
SF-539 CNS = test system: SF-539 CNS
DU-145 prostate = test system: DU-145 prostate
MDA-MB-231 breast = test system: MDA-MB-231 breast
HL-60(TB) leukemia = test system: HL-60(TB) leukemia
U251 CNS = test system: U251 CNS
PC-3 prostate = test system: PC-3 prostate
M14 melanoma = test system: M14 melanoma
HCT-15 colon = test system: HCT-15 colon
K-562 leukemia = test system: K-562 leukemia
SNB-75 CNS = test system: SNB-75 CNS
HCC-2998 colon = test system: HCC-2998 colon
NCI-H460 lung = test system: NCI-H460 lung
NCI-H23 lung = test system: NCI-H23 lung
MDA-MB-435 = test system: MDA-MB-435
CCRF-CEM leukemia = test system: CCRF-CEM leukemia
ACHN renal = test system: ACHN renal
EKVX NSCLC = test system: EKVX NSCLC

Measured: TGI

O=c1[nH]c2cc(F)c(F)cc2nc1Cc1ccccc1
> 100 µM: all assays above
